Test systems include SK-MEL-28; UACC-62; K562; U-251; A498; SNB-75; OVCAR-8; A549; RPMI-8226; SK-MEL-5; OVCAR-5; NCI-H522; HCT-116; RXF 393; HCT-15; CAKI-1; CCRF-CEM; Malme-3M; ACHN; M14.
What all share (assay): growth of human tumour cells (NCI), 48 h

SMILES strings stand for the structures.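 Assay format: 96-well plates, 48-hour exposure. At the GI50, growth is halved.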 The source made the active and inactive calls. No stated cut-off is given here; in the data, active = GI50 up to about 1.1 µM and inactive = higher.

As for `CC1=C2C(O)C(C(C)C(=O)NC(C)C)CCC2(C)C=CC1=O` (configuration not stated), the GI50 in the test on SK-MEL-28, in the test with UACC-62, in the test on K562, in the test on U-251, in the test with A498 and in the test on SNB-75 was > 100 µM (inactive) in each case. Moreover, the GI50 in the test with OVCAR-8, in the test on A549, in the test on RPMI-8226, with SK-MEL-5, in the test with OVCAR-5 and in the test with NCI-H522 was > 100 µM (inactive) in each case. Further, the GI50 in the test with HCT-116 is > 100 µM (inactive); in the test on RXF 393, > 100 µM (inactive); with HCT-15 it was over 100 µM; in the test with CAKI-1, > 100 µM (inactive); in the test with CCRF-CEM, > 100 µM (inactive).
For `CC(=O)OC1CCC2(C)C3CCC4(C)C(c5ccc(=O)oc5)CC5OC54C3CCC2(O)C1` (configuration not stated), the GI50 with SK-MEL-28 is 4.27 µM (inactive); with UACC-62, 2.69 µM (inactive); in the test on Malme-3M, 0.895 µM (active); with K562, 0.979 µM (active); in the test on U-251 it was 2.21 µM (inactive); in the test with A498, 1.55 µM (inactive). In addition, the GI50 with SNB-75 is 1.06 µM (active); in the test with OVCAR-8, 1.15 µM (inactive); in the test with A549 it was 0.495 µM (active); with RPMI-8226, 0.869 µM (active); in the test with SK-MEL-5 it was 0.714 µM (active); in the test on OVCAR-5 it was 5.81 µM (inactive). In addition, the GI50 in the test with NCI-H522 is 0.53 µM (active); with HCT-116, 0.706 µM (active); with RXF 393, 0.479 µM (active); in the test with HCT-15, 1.9 µM; in the test on CAKI-1, 0.738 µM (active); with CCRF-CEM, 0.631 µM (active).
As to `Cc1cn(C2CC(N)C(C(=O)NCC(=O)O)O2)c(=O)[nH]c1=O` (configuration not stated), the GI50 was > 100 µM (inactive) with SK-MEL-28; > 100 µM (inactive) in the test with UACC-62; > 100 µM (inactive) with Malme-3M; 95.3 µM (inactive) in the test on K562; > 100 µM (inactive) in the test with U-251; 50.6 µM (inactive) with A498. The GI50 with SNB-75, in the test with ACHN, with RPMI-8226, in the test with SK-MEL-5, with OVCAR-5 and with NCI-H522 was > 100 µM (inactive) in each case. The GI50 is > 100 µM (inactive) with HCT-116; > 100 µM (inactive) in the test with RXF 393; over 100 µM with HCT-15; > 100 µM (inactive) with CAKI-1; > 100 µM (inactive) with CCRF-CEM; > 100 µM (inactive) in the test on M14.
`COc1ccc(/C(Cl)=C(\C=O)c2ccc(F)cc2)cc1OC`: the GI50 in the test with SK-MEL-28 was 24 µM (inactive); in the test on UACC-62, 14.5 µM (inactive); in the test with Malme-3M, 30.5 µM (inactive); in the test on K562, 16.8 µM (inactive); in the test on U-251 it was 15.6 µM (inactive); in the test with A498, 20 µM (inactive). Moreover, the GI50 in the test with SNB-75 is 3.22 µM (inactive); in the test with OVCAR-8 it was 21.5 µM (inactive); with ACHN, 16.8 µM (inactive); in the test on RPMI-8226, 6.64 µM (inactive); in the test with SK-MEL-5 it was 15.3 µM (inactive); with NCI-H522, 12.3 µM (inactive). For the same compound, the GI50 in the test on HCT-116 is 15.4 µM (inactive); in the test on HCT-15, 12.8 µM; with CAKI-1, 19.1 µM (inactive); with CCRF-CEM it was 10.7 µM (inactive); in the test with M14, 17.6 µM (inactive).
Turning to `COC(=O)C(C(=O)C(=O)Nc1nnc(S)[nH]1)c1csc(-n2nc(-c3ccccc3)cc2-c2ccccc2)n1` (configuration not stated), the GI50 with UACC-62 is > 100 µM (inactive); in the test with Malme-3M, > 100 µM (inactive); with K562, > 100 µM (inactive); with U-251 it was > 100 µM (inactive); in the test with A498, > 100 µM (inactive); in the test with SNB-75, 3.75 µM (inactive). Moreover, the GI50 in the test on OVCAR-8, in the test with ACHN, with A549, with RPMI-8226, in the test on OVCAR-5 and in the test with NCI-H522 was > 100 µM (inactive) throughout. Moreover, the GI50 in the test on HCT-116 is > 100 µM (inactive); in the test on RXF 393 it was > 100 µM (inactive); in the test on HCT-15, over 100 µM; in the test on CAKI-1, > 100 µM (inactive); with CCRF-CEM, > 100 µM (inactive); in the test with M14, > 100 µM (inactive).
Turning to `CCN1CCC(O)(C(C(=O)O)c2ccccc2)CC1` (configuration not stated), the GI50 in the test with SK-MEL-28, with UACC-62, with Malme-3M, with K562, in the test with U-251 and in the test with A498 was > 100 µM (inactive) throughout. Also, the GI50 in the test with SNB-75, in the test with OVCAR-8, in the test on ACHN, with A549, in the test on RPMI-8226 and in the test with SK-MEL-5 was > 100 µM (inactive) in each case. For the same compound, the GI50 in the test with OVCAR-5 is > 100 µM (inactive); with NCI-H522, > 100 µM (inactive); in the test on RXF 393, > 100 µM (inactive); in the test with HCT-15, over 100 µM; with CAKI-1, > 100 µM (inactive); in the test on CCRF-CEM, > 100 µM (inactive). Further, the GI50 in the test with M14 was > 100 µM (inactive).
As for `O=C(N/N=C/c1cc(Br)cc(Br)c1O)c1ccccc1O`, the GI50 in the test on SK-MEL-28 is 0.708 µM (active); with UACC-62 it was 0.368 µM (active); with Malme-3M it was 1.56 µM (inactive); with U-251 it was 0.399 µM (active); in the test on SNB-75 it was 3.66 µM (inactive); in the test on OVCAR-8, 0.463 µM (active). Moreover, the GI50 in the test on ACHN is 0.436 µM (active); in the test with A549, 1.1 µM (active); with SK-MEL-5, 1.07 µM (active); with OVCAR-5, 0.723 µM (active); in the test on NCI-H522, 0.311 µM (active); with HCT-116, 1.82 µM (inactive). Also, the GI50 is 0.929 µM (active) in the test with RXF 393, 0.422 µM with HCT-15, 0.8 µM (active) with CAKI-1 and 0.687 µM (active) in the test on M14.
Consider `COc1nc(C#CCC(C)O)nc(OC)n1` (configuration not stated), for which the GI50 is 31.6 µM (inactive) with SK-MEL-28; 15.1 µM (inactive) in the test on UACC-62; 11.5 µM (inactive) with Malme-3M; 38.2 µM (inactive) in the test with K562; 29.6 µM (inactive) with U-251; 30.5 µM (inactive) with A498. Moreover, the GI50 is 27 µM (inactive) in the test on SNB-75; 17.1 µM (inactive) in the test on OVCAR-8; 17.1 µM (inactive) in the test on ACHN; 23.3 µM (inactive) with A549; 18.8 µM (inactive) in the test with SK-MEL-5; 19.1 µM (inactive) with OVCAR-5. Also, the GI50 in the test with NCI-H522 was 17.7 µM (inactive); in the test on HCT-116, 14.9 µM (inactive); in the test with RXF 393 it was 7.38 µM (inactive); in the test on HCT-15, 18.6 µM; in the test with CAKI-1, 17.6 µM (inactive); in the test on M14 it was 16.9 µM (inactive).
Turning to `COC1OC2COC(c3ccccc3)OC2C(OC(=S)c2ccccc2)C1O` (configuration not stated), the GI50 in the test on SK-MEL-28 is 0.662 µM (active); in the test with UACC-62, > 100 µM (inactive); in the test with Malme-3M it was 4.45 µM (inactive); with K562 it was > 100 µM (inactive); in the test with U-251, 11.5 µM (inactive); in the test on A498 it was > 100 µM (inactive). Moreover, the GI50 is 16.9 µM (inactive) with OVCAR-8; 75.5 µM (inactive) with ACHN; 13.4 µM (inactive) in the test on A549; 13.9 µM (inactive) in the test with RPMI-8226; > 100 µM (inactive) with SK-MEL-5; > 100 µM (inactive) in the test with OVCAR-5. Moreover, the GI50 was 12 µM (inactive) in the test with RXF 393; over 100 µM in the test on HCT-15; 41 µM (inactive) in the test on CAKI-1; 14.3 µM (inactive) in the test on CCRF-CEM; > 100 µM (inactive) in the test with M14.
Regarding `N#Cc1c(OCCF)c2ccccc2n2c1nc1ccccc12`, the GI50 is > 100 µM (inactive) in the test with SK-MEL-28; 48.6 µM (inactive) with UACC-62; > 100 µM (inactive) in the test with K562; 37.6 µM (inactive) in the test on U-251; 1.94 µM (inactive) in the test on A498; 70.6 µM (inactive) in the test with SNB-75. Moreover, the GI50 in the test on OVCAR-8 is 42.3 µM (inactive); in the test on ACHN, 23.3 µM (inactive); in the test with A549, 31.6 µM (inactive); in the test with RPMI-8226, > 100 µM (inactive); in the test with SK-MEL-5 it was 49.5 µM (inactive); in the test on OVCAR-5, > 100 µM (inactive). Also, the GI50 in the test on NCI-H522 is 19.6 µM (inactive); in the test with HCT-116, 11.2 µM (inactive); with RXF 393, 17.3 µM (inactive); in the test with HCT-15 it was 32.7 µM; in the test on CAKI-1, 52.2 µM (inactive); with CCRF-CEM, 95.7 µM (inactive). The GI50 with M14 was > 100 µM (inactive).
With `N#CN=C(NCCO)NCCO`, the GI50 is > 100 µM (inactive) in the test on SK-MEL-28; > 100 µM (inactive) in the test on UACC-62; > 100 µM (inactive) in the test with Malme-3M; > 100 µM (inactive) in the test on U-251; 92.7 µM (inactive) in the test on A498; > 100 µM (inactive) in the test with SNB-75. For the same compound, the GI50 with OVCAR-8, with ACHN, in the test on A549, in the test on RPMI-8226, in the test on OVCAR-5 and with NCI-H522 was > 100 µM (inactive) in each case. The GI50 with HCT-116 is > 100 µM (inactive); in the test on HCT-15, over 100 µM; with CAKI-1, > 100 µM (inactive); in the test on CCRF-CEM it was > 100 µM (inactive); in the test on M14, > 100 µM (inactive).
For the compound `C=CCc1c(O)c2c(c3oc(=O)cc(C)c13)CC(C)O2` (configuration not stated), the GI50 in the test on UACC-62 is > 100 µM (inactive); with Malme-3M, > 100 µM (inactive); in the test with K562 it was > 100 µM (inactive); in the test on U-251, > 100 µM (inactive); in the test on SNB-75, > 100 µM (inactive); with OVCAR-8, 65.3 µM (inactive). The GI50 with ACHN was > 100 µM (inactive); with A549 it was > 100 µM (inactive); in the test on RPMI-8226 it was 60.8 µM (inactive); in the test with SK-MEL-5, > 100 µM (inactive); in the test on OVCAR-5, > 100 µM (inactive); with NCI-H522, > 100 µM (inactive). The GI50 in the test with HCT-116 is > 100 µM (inactive); in the test with RXF 393, 67.8 µM (inactive); in the test with HCT-15 it was over 100 µM; in the test on CAKI-1, > 100 µM (inactive); in the test on CCRF-CEM, 50.4 µM (inactive); in the test on M14, > 100 µM (inactive).

Source of the values: ChEMBL document CHEMBL1201862, “PubChem BioAssay data set” (2004).
